Experimental data from patent US11325936B2, “Sialidase inhibitors and preparation thereof” (The Regents of the University of California, priority 2017, dated 2022).
Like-named read-outs stand apart in the source and are kept apart here.

Legend:
[1] = target: T1, SpNanB (Streptococcus pneumoniae serotype 4, UniProt Q54727, E68D/K536E/K577E/N393D/S59P); test: Sialidase inhibition assay (Example 4); assay type: biochemical; conditions: pH 6, read-out: Percentage inhibition (%) against SpNanB
[2] = target: T2, SpNanA (Streptococcus pneumoniae, UniProt P62575); test: Sialidase inhibition assay (Example 7); assay type: biochemical; conditions: pH 6, read-out: Percentage inhibition (%) against SpNanA
T2 sequence (P62575 54-1006): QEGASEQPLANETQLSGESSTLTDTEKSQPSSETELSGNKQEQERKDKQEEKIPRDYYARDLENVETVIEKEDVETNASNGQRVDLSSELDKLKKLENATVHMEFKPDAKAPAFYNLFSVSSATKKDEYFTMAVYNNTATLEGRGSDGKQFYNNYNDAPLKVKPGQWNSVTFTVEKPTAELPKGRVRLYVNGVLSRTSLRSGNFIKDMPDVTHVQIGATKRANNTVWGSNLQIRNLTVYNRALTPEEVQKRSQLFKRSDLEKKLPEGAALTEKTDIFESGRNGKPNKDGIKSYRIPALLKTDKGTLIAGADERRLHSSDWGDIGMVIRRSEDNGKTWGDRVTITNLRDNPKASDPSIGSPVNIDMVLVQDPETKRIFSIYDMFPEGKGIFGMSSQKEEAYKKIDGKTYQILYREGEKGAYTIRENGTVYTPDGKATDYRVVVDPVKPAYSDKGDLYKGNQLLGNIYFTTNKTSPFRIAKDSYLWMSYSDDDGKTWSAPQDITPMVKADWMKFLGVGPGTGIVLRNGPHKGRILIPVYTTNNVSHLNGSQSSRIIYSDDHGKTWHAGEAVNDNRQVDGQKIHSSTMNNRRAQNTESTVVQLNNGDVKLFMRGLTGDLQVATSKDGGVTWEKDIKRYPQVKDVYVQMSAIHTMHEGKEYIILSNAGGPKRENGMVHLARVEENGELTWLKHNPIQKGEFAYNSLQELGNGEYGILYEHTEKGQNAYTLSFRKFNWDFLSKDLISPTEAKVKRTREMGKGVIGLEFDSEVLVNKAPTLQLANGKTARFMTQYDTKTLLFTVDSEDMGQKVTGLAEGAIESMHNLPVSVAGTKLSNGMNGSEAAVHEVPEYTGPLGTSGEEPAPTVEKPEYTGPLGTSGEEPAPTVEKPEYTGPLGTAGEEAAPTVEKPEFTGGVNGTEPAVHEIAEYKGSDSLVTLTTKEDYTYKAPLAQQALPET

[3] = system: CpNanI; assay type: biochemical, Clostridium perfringens; conditions: 1 mM of each inhibitor; substrate Neu5Acα2-3GalβpNP 0.3 mM; pH 5.0
[4] = target: T3, VcSialidase (Vibrio cholerae serotype O1, UniProt P0C6E9); test: Sialidase inhibition assay (Example 7); assay type: biochemical; conditions: pH 5.5, read-out: Percentage inhibition (%) against VcSialidase
T3 sequence (P0C6E9 25-781): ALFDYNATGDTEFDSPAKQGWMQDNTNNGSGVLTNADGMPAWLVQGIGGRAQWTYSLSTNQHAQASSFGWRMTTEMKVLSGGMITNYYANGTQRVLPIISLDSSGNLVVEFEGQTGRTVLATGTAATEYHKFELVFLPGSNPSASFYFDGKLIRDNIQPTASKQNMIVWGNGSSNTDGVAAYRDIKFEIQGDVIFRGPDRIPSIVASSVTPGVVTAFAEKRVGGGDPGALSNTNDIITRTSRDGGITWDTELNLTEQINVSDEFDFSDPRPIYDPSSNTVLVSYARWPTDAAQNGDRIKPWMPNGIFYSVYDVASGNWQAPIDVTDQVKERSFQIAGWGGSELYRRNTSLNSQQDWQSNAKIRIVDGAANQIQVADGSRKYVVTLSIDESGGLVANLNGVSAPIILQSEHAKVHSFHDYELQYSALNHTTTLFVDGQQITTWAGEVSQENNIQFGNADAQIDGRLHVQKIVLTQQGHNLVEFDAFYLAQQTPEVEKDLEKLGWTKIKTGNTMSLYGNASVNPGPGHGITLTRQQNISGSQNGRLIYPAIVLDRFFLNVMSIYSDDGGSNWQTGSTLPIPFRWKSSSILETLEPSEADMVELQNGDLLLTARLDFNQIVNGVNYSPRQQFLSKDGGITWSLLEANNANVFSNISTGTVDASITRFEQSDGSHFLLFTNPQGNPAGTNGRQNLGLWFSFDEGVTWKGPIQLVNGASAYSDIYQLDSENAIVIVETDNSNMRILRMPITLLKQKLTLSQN

[5] = target: CpNanH (Clostridium perfringens, UniProt P10481); test: biochemical; conditions: pH 5.0; read-out: Percentage inhibition (%) against CpNanH
CpNanH, sequence (P10481 whole entry, looked up): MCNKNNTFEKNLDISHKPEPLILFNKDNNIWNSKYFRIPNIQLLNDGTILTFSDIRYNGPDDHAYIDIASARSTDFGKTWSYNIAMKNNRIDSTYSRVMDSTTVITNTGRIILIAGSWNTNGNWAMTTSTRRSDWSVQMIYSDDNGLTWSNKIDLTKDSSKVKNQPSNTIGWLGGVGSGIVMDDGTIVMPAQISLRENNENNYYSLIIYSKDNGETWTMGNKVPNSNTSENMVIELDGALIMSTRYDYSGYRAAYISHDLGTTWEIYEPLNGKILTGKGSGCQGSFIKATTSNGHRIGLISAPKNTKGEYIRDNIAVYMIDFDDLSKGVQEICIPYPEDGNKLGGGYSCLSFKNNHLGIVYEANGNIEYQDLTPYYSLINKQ

[6] = target: T4, PmST1 (Pasteurella multocida, UniProt Q15KI8); test: Sialidase inhibition assay (Example 7); assay type: biochemical; conditions: 1 mM of each inhibitor; substrate Neu5Acα2-3GalβpNP 0.3 mM; CMP 0.4 mM; pH 5.5; read-out: Percentage inhibition (%) against PmST1
T4 sequence (Q15KI8 entry or part of it): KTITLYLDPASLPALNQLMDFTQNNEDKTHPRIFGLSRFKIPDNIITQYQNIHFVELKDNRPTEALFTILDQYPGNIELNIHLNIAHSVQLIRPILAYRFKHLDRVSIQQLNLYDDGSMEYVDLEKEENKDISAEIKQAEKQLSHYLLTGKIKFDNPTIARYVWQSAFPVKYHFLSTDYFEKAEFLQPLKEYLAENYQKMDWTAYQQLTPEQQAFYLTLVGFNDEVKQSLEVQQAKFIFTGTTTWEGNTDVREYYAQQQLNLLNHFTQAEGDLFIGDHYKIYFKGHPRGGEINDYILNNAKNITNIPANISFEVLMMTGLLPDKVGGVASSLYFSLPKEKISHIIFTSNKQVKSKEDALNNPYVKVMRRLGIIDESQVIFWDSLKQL

[7] = target: T1, SpNanB; test: Sialidase inhibition assay (Example 7); assay type: biochemical; conditions: pH 6, read-out: Percentage inhibition (%) against SpNanB
[8] = target: T5, SpNanC (Streptococcus pneumoniae, UniProt A0A0H2UQE4); test: Sialidase inhibition assay (Example 7); conditions: pH 6.5, read-out: Percentage inhibition (%) against SpNanC
T5 sequence (A0A0H2UQE4 entry or part of it): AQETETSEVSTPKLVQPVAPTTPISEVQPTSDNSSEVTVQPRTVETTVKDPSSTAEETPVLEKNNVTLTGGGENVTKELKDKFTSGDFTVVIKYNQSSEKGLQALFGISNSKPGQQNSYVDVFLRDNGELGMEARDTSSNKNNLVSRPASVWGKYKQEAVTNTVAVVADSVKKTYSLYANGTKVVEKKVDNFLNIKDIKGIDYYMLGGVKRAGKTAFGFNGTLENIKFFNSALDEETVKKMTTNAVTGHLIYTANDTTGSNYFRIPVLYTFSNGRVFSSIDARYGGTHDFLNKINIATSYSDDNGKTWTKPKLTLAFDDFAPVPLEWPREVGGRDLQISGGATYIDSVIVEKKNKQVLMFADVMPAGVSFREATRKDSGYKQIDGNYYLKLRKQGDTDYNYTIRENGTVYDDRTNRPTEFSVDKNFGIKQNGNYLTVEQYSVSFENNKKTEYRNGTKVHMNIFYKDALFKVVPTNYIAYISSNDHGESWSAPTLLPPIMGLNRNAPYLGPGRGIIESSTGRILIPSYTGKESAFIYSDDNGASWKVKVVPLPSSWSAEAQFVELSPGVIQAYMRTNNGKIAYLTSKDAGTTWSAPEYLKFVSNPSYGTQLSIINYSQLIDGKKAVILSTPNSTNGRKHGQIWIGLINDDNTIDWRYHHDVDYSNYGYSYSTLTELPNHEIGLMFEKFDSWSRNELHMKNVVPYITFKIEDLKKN

[9] = target: T6, BiNanH2 (Bifidobacterium longum subsp. infantis, UniProt A0ACD7UU12); test: Sialidase inhibition assay (Example 7); assay type: biochemical; conditions: pH 5, read-out: Percentage inhibition (%) against BiNanH2
T6 sequence (A0ACD7UU12 entry or part of it): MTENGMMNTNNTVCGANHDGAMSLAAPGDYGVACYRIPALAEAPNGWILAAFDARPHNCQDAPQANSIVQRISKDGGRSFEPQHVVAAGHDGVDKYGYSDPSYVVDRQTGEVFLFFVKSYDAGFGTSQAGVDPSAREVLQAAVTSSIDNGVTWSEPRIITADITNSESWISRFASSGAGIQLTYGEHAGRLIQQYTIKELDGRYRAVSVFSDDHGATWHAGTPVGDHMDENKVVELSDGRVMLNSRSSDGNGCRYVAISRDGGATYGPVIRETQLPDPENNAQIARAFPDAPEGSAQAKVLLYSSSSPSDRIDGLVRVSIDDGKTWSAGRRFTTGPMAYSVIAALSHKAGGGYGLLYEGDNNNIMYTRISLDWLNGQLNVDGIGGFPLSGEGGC

[10] = target: T6, BiNanH2; test: Sialidase inhibition assay (Example 4); assay type: biochemical; conditions: pH 5, read-out: Percentage inhibition (%) against BiNanH2, 0.1 mM of each inhibitor, substrate Neu5Acα2-3GalβpNP 0.3 mM
[11] = target: T5, SpNanC; test: Sialidase inhibition assay (Example 4); assay type: biochemical; conditions: pH 6.5, read-out: Percentage inhibition (%) against SpNanC
[12] = target: T7, AuSialidase (Paenarthrobacter ureafaciens, UniProt Q5W7Q2); test: Sialidase inhibition assay (Example 7); assay type: biochemical, Arthrobacter ureafaciens; conditions: 1 mM of each inhibitor; substrate Neu5Acα2-3GalβpNP 0.3 mM; pH 5.5; read-out: Percentage inhibition (%) against AuSialidase
T7 sequence (Q5W7Q2 39-990): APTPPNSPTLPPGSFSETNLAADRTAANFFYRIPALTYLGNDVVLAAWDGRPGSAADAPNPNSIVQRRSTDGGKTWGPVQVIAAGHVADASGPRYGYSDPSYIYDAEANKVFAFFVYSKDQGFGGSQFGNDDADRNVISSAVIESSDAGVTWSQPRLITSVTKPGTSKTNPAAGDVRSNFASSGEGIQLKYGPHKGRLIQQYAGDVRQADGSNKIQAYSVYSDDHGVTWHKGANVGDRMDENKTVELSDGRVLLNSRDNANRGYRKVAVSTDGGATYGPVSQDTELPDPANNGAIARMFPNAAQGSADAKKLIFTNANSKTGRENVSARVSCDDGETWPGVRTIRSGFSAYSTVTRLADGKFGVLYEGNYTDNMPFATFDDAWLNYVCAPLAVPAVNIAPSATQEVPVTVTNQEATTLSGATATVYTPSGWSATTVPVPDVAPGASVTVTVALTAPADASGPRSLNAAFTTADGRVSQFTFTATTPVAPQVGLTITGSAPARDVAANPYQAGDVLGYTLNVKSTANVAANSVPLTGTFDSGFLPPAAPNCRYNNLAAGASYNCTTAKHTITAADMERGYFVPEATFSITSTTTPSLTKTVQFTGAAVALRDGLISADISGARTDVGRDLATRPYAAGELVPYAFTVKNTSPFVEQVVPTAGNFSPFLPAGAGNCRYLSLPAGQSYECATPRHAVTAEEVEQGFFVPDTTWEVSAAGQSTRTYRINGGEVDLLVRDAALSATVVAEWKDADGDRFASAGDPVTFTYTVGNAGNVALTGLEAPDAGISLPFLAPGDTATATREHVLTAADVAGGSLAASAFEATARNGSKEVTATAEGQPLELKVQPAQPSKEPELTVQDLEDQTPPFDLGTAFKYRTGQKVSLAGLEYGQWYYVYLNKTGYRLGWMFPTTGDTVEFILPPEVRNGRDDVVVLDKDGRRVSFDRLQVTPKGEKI

[13] = target: T4, PmST1; test: Sialidase inhibition assay (Example 4); assay type: biochemical; conditions: 0.1 mM of each inhibitor; substrate Neu5Acα2-3GalβpNP 0.3 mM; pH 5.5; read-out: Percentage inhibition (%) against PmST1
Experimental: (§1) The assay conditions varied for different sialidases as described below: SpNanA (0.0015 μg), NaOAc buffer (100 mM, pH 6.0); SpNanB (0.003 μg), NaOAc buffer (100 mM, pH 6.0); SpNanC (0.02 μg), MES buffer (100 mM, pH 6.5); AuSialidase (1.0 mU), NaOAc buffer (100 mM, pH 5.5); CpNanI (2.0 mU), MES buffer (100 mM, pH 5.0); CpNanH (0.5 mU), MES buffer (100 mM, pH 5.0); VcSialidase (1.5 mU), NaCl (150 mM), CaCl2) (10 mM), NaOAc buffer (100 mM, pH 5.5); PmST1 (34.4 μg), NaOAc buffer (100 mM, pH 5.5); BiNanH2, NaOAc buffer (100 mM, pH 5.0); hNEU2 (22.0 μg), MES buffer (100 mM, pH 5.0). The reactions were incubated for 30 min at 37° C., and were stopped by adding CAPS buffer (N-cyclohexyl-3-aminopropane sulfonic acid, 40 μL, 0.5 M, pH 10.5). The amount of the para-nitrophenolate formed was determined by measuring the A405 nm Of the reaction mixtures using a microplate reader.
(§2) The percentage inhibitions were determined using a concentration of 0.1 mM of each inhibitor, with reactions without inhibitors as controls. […] The values of IC50 were calculated by the software Grafit 5.0.

[14] = system: CpNanI; assay type: biochemical, Clostridium perfringens; conditions: 0.1 mM of each inhibitor; substrate Neu5Acα2-3GalβpNP 0.3 mM; pH 5.0
[15] = target: hNEU2 (Homo sapiens, UniProt Q9Y3R4); test: Sialidase inhibition assay (Example 4); assay type: biochemical; conditions: pH 5, 0.1 mM of each inhibitor, substrate Neu5Acα2-3GalβpNP 0.3 mM, read-out: Percentage inhibition (%) against hNEU2
hNEU2, sequence (Q9Y3R4 whole entry): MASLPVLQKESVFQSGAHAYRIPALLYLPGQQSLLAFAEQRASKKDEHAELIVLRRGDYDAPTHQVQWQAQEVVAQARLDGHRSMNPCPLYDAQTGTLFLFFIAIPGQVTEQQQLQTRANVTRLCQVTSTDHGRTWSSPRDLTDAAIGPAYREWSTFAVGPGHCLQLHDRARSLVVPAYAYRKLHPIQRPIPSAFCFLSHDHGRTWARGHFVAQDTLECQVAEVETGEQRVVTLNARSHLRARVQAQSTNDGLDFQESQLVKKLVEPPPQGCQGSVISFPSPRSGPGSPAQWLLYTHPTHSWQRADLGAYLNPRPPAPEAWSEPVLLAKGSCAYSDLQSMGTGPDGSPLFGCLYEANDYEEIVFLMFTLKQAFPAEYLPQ

[16] = target: T2, SpNanA; test: Sialidase inhibition assay (Example 4); assay type: biochemical; conditions: for inhibition at 100 µM: pH 6, read-out: Percentage inhibition (%) against SpNanA, 0.1 mM of each inhibitor, substrate Neu5Acα2-3GalβpNP 0.3 mM, pH 6.0
[17] = target: T7, AuSialidase; test: Sialidase inhibition assay (Example 4); assay type: biochemical, Arthrobacter ureafaciens; conditions: pH 5.5, read-out: Percentage inhibition (%) against AuSialidase, 0.1 mM of each inhibitor, substrate Neu5Acα2-3GalβpNP 0.3 mM
Experimental: as §1, §2

[18] = target: T3, VcSialidase; test: biochemical; conditions: pH 5.5, read-out: Percentage inhibition (%) against VcSialidase, 0.1 mM of each inhibitor, substrate Neu5Acα2-3GalβpNP 0.3 mM

T1 sequence (Q54727 30-697 S59P/E68D/N393D/K536E/K577E): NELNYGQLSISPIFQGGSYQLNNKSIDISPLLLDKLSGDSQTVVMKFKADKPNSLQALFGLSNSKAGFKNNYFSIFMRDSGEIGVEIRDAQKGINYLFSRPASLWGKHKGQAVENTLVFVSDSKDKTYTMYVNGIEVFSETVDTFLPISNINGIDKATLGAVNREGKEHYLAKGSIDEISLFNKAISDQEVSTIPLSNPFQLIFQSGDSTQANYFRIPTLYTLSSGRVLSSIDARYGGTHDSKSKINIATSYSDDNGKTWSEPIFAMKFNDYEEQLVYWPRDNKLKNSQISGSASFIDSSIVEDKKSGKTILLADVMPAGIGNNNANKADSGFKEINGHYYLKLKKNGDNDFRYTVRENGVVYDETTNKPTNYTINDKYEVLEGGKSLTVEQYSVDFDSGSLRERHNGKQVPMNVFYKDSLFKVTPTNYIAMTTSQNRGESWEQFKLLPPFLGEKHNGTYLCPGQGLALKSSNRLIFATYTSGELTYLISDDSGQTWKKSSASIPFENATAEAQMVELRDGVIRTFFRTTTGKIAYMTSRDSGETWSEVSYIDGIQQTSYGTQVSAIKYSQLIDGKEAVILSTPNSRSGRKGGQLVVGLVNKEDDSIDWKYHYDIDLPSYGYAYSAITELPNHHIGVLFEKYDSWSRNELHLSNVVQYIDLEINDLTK

| Compound | inhibition at 100 µM [1] | inhibition at 1000 µM [2] | Percentage inhibition (%) against CpNanI [3] | inhibition at 1000 µM [4] | inhibition at 100 µM [5] | inhibition at 1000 µM [6] | inhibition at 1000 µM [7] | inhibition at 1000 µM [8] | inhibition at 1000 µM [9] | inhibition at 100 µM [10] | inhibition at 100 µM [11] | inhibition at 1000 µM [12] | inhibition at 100 µM [13] | Percentage inhibition (%) against CpNanI [14] | inhibition at 100 µM [15] | IC50 [16] | inhibition at 100 µM [16] | inhibition at 100 µM [17] | inhibition at 100 µM [18] |
| --- | --- | --- | --- | --- | --- | --- | --- | --- | --- | --- | --- | --- | --- | --- | --- | --- | --- | --- | --- |
| CC(=O)N[C@H]1[C@H]([C@H](O)[C@H](O)CO)OC(C(=O)O)=C[C@@H]1O [compound 6, 5-Acetamido-2,6-anhydro-3,5-dideoxy-D-glycero-D-galacto-non-2-enonic acid, reference compound] | 4% | 98.9 ± 1.8% | 93.3 ± 3.8% | 98.8 ± 0.1% | 2% | 15.8 ± 0.1% | 26.1 ± 1% | 9 ± 3.5% | 95.3 ± 0.2% | > 50% | 11% | 99.6 ± 0.6% | 2% | – | – | – | – | – | – |
| CCCCC(=O)NC[C@@H](O)[C@@H](O)[C@@H]1OC(C(=O)O)=C[C@H](O)[C@H]1NC(C)=O [compound 12, 5-Acetamido-2,6-anhydro-3,5,9-trideoxy-9-valeramido-D-glycero-D-galacto-non-2-enonic acid] | 3% | – | – | – | 3% | – | – | – | – | 71% | 11% | – | 8% | 40% | 19% | 10.5 ± 0.5 µM | 85% | 40% | 43% |
| CC(=O)N[C@@H]1C(O)C=C(C(=O)O)OC1[C@H](O)[C@H](O)CNC(=O)C1CC1 (stereo partly drawn) [compound 13, 5-Acetamido-2,6-anhydro-9-cyclopropylcarboxamido-3,5,9-trideoxy-D-glycero-D-galacto-non-2-enonic acid] | 2% | – | – | – | 7% | – | – | – | – | 78% | 16% | – | 3% | 51% | 17% | 6.8 ± 0.2 µM | 91% | 61% | 40% |
| O=C(Cc1ccccc1)N[C@H]1[C@H]([C@H](O)[C@H](O)CO)OC(C(=O)O)=C[C@@H]1O [compound 15, 2,6-Anhydro-3,5-dideoxy-5-phenylacetamido-D-glycero-D-galacto-non-2-enonic acid] | 5% | – | – | – | 8% | – | – | – | – | 17% | 12% | – | 8% | 19% | 81% | – | 2% | 13% | 5% |
| CC(=O)N[C@@H]1C(O)C=C(C(=O)O)OC1C[C@H](O)CO (stereo partly drawn) [compound 10, 5-Acetamido-2,6-anhydro-3,5,7-trideoxy-D-glycero-D-galacto-non-2-enonic acid] | 2% | – | – | – | 11% | – | – | – | – | 30% | 5% | – | 15% | 57% | 42% | 10.7 ± 0.4 µM | 89% | 85% | 40% |
| O=C(CO)N[C@@H]1C(O)C=C(C(=O)O)OC1[C@H](O)[C@H](O)CO (stereo partly drawn) [compound 7, 2,6-Anhydro-3,5-dideoxy-5-glycolylamido-D-glycero-D-galacto-non-2-enonic acid] | 4% | – | – | – | 9% | – | – | – | – | 19% | 17% | – | 2% | 20% | > 50% | – | 14% | 47% | – |
| CC(=O)NC[C@@H](O)[C@@H](O)[C@@H]1OC(C(=O)O)=C[C@H](O)[C@H]1NC(C)=O [compound 9, 5,9-Diacetamido-2,6-anhydro-3,5,9-trideoxy-D-glycero-D-galacto-non-2-enonic acid] | 4% | – | – | – | 1% | – | – | – | – | 69% | 8% | – | 19% | 63% | 27% | 11 ± 0.2 µM | 86% | 60% | 45% |
